According to ChEMBL document CHEMBL4402560, “Sarco/Endoplasmic Reticulum Calcium ATPase Inhibitors: Beyond Anticancer Perspective” (J Med Chem, 2020):

Tested on: Mycobacterium tuberculosis variant bovis
Experiment: Antimycobacterial activity against Mycobacterium bovis
Type: functional, organism-based

SMILES	IC50 [µM]
C/C=C(\C)C(=O)O[C@@H]1C[C@H]2C(=C1C)[C@@H]1OC(=O)[C@@](C)(O)[C@@]1(O)[C@@H](OC(=O)[C@H](C)CC)C[C@@]2(C)OC(C)=O	27.3
C/C=C(/C)C(=O)O[C@@H]1C[C@H]2C(=C1C)[C@@H]1OC(=O)[C@@](C)(O)[C@@]1(O)[C@@H](OC(=O)CCCCn1cc([C@]3(O)CC[C@H]4[C@@H]5CCc6cc(OC)ccc6[C@H]5CC[C@@]43C)nn1)C[C@]2(C)OC(C)=O	10.6
